The target in this assay is Induced myeloid leukemia cell differentiation protein Mcl-1 (Homo sapiens) (UniProt Q07820). Put plainly: blockers of Bid binding to Mcl-1 – biochemical, TR-FRET, dose response (AID 1418). Particulars: Mcl-1/Bid peptide binding, TR-FRET (europium/Dy647), 2 hr. On the technique in general: In TR-FRET formats the signal depends on donor and acceptor labels being close together.

pIC50: −log10 of the molar value. Calls of active or inactive are those of the source. How the calls were made is not given here.

Induced myeloid leukemia cell differentiation protein Mcl-1 (Homo sapiens), sequence (Q07820 whole entry, looked up): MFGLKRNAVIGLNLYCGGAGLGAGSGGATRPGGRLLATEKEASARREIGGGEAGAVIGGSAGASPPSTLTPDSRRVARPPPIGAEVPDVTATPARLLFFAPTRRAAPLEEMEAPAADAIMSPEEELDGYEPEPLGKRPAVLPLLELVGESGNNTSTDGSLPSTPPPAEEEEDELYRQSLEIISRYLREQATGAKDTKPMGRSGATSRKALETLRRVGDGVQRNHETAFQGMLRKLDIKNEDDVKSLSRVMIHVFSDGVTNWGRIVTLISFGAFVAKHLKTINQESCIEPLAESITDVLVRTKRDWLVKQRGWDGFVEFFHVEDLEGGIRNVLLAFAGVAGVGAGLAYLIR

With `COc1cc(/C=C2\SC(=O)N(c3cccc(Cl)c3)C2=O)cc([N+](=O)[O-])c1O`, the pIC50 was 5.20.
Turning to `Cc1cc(NC(=O)c2noc3c2CCc2ccccc2-3)no1`, the IC50 is > 54 µM (inactive).
As for `Cc1ccc(-n2cccc2/C=C2\C(=N)N3N=C(c4ccco4)SC3=NC2=O)cc1`, the pIC50 was 5.46.
In the case of `C=CCc1ccc(OCCOCCOc2cccc3ccc(C)nc23)c(OC)c1`, the IC50 is > 54 µM (inactive).
`O=C(NC(=S)Nc1ccc(S(=O)(=O)N2CCCCC2)cc1)c1cccs1`: the IC50 was > 54 µM (inactive).
As to `Cc1sc(NC(=O)c2cc(-c3ccc(Cl)cc3)nc3ccccc23)c(C(N)=O)c1C`, the pIC50 was 6.04.
In the case of `CC(=O)c1ccc(NC(=S)NNC(=O)c2ccncc2)cc1`, the IC50 is > 54 µM (inactive).
Still for that read-out and setting: as for `COC(=O)C1=CN(CC2CCCO2)C=C(C(=O)OC)C1c1ccsc1` (centres undefined), the figure is > 54 µM (inactive); as for `Cc1nc2sc(C(c3cccs3)N3CCOCC3)c(O)n2n1` (centres undefined), > 54 µM (inactive); as for `COc1ccc(C(=O)Nc2nc3cc(OC)c(OC)cc3c(=O)[nH]2)cc1`, > 54 µM (inactive).
As for `Cc1nc2c(-c3ccc(Cl)cc3)cnn2c2c1CCC2`, the IC50 is > 54 µM (inactive).
Still for that read-out and setting: as for `O=C(COC(=O)c1ccc2ccccc2c1)NCCCc1ccccc1`, the figure is > 54 µM (inactive).
Still for that read-out and setting: as for `COCCCNCC(=O)Nc1sc(C)c(C)c1C(=O)OC`, the figure is > 54 µM (inactive).
The same measure, in the same setting: as for `CCOc1c(C(N)=O)c(-c2ccccc2)c2c(=O)[nH]c3ccccc3n12`, the figure is > 54 µM (inactive); as for `COC(=O)c1ccc(NC(=O)c2ccccc2N(C)S(=O)(=O)c2ccccc2)cc1`, > 54 µM (inactive).
Take `CC(C)N1C(=O)/C(=C/c2nc3ccccc3c(=O)n2-c2ccccc2)c2ccccc21`: the pIC50 was 6.00.
`O=C(CNC(=O)c1ccc([N+](=O)[O-])cc1)N/N=C\c1ccc(OC(=O)c2ccccc2)cc1`: the pIC50 was 4.96.
As to `Cc1occc1C(=O)NNC(=O)Nc1ccc([N+](=O)[O-])cc1`, the IC50 was > 54 µM (inactive).
Still for that read-out and setting: as for `N#Cc1cc(-c2ccccc2)nc(Oc2ccccc2)n1`, the figure is > 54 µM (inactive).
Turning to `COc1ccc2[nH]c3c4c(ccc3c2c1)C(=O)C=CC4=O`, the pIC50 was 5.60.
For the compound `CCCCCSc1nnc2c(n1)OC(c1cccn1C)N(C(C)=O)c1ccccc1-2` (centres undefined), the IC50 was > 54 µM (inactive).
In the case of `COc1ccccc1OCCOc1ccc(/C=C2/C(=N)N3OC(C)=CC3=NC2=O)cc1OC`, the pIC50 is 6.25.
As for `CC1CCN(S(=O)(=O)c2cccc(C(=O)Nc3ccccn3)c2)CC1`, the IC50 is > 54 µM (inactive).
Same read-out and setting: as for `Cc1ccc(OCC(=O)NCc2ccco2)c([N+](=O)[O-])n1`, the figure is > 54 µM (inactive).
`COC(=O)c1c(C)[nH]c(C)c1C(C)=O`: the pIC50 is 6.27.
Consider `CCOC(=O)c1ccc(NS(=O)(=O)N2CCCCCC2)cc1`, for which the IC50 was > 54 µM (inactive).
On to `COc1ccc(C(=O)Nc2ccc3c(c2)C(=O)c2ccccc2C3=O)cc1OC`, for which the pIC50 is 6.22.
As for `COc1ccc(N/C(=C(/C(Cl)=C(Cl)Cl)[N+](=O)[O-])n2nnc3ccccc32)cc1OC`, the IC50 was > 54 µM (inactive).
On to `O=[N+]([O-])c1ccc2c(c1)ncn2-c1ccccc1`, for which the IC50 was > 54 µM (inactive).
In the case of `COc1ccc(CN2CCN(c3ccccc3F)CC2)cc1O`, the IC50 is > 54 µM (inactive).
The same measure, in the same setting: as for `Cc1cc(-c2nc3c4c5c(sc4[nH]c(=O)n3n2)CCC5)c(C)o1`, the figure is > 54 µM (inactive); as for `COc1ccc(-n2cc(-c3ccc(OC(F)F)cc3)[n+]3c2CCCCC3)cc1`, > 54 µM (inactive); as for `Cn1c2c(c(=O)n(C)c1=O)C1c3cc(Cl)ccc3OCC1CO2` (centres undefined), > 54 µM (inactive).
As to `COc1ccc(CN2C(=O)c3cccnc3C2Nc2ccc(OC)c(Cl)c2)cc1` (centres undefined), the pIC50 was 6.13.
As to `Cc1ccc(N2C(=O)CC(Cn3nc(C)cc3C)C2=O)cc1` (centres undefined), the IC50 was > 54 µM (inactive).
`CCOc1ccc2nc(N3C(=O)/C(=C/c4ccc(Cl)cc4)NC3=S)sc2c1`: the negative logarithm of the IC50 (pIC50) was 5.61.
Take `Nc1nc(SCc2ccc([N+](=O)[O-])cc2)nc2nc3c(cc12)CCCC3`: the IC50 is > 54 µM (inactive).
Same read-out and setting: as for `O=C(CSc1nnc(COc2cccc3cccnc23)o1)N1CCc2ccccc21`, the entry is “inactive”.
As for `Cc1cc2nc(-c3ccc(NC(=O)C(C)C)cc3)oc2cc1C`, the pIC50 is 5.52.
For `COc1cccc(NC(=O)CSc2nc3ccccc3n2C)c1`, the IC50 is > 54 µM (inactive).
Turning to `COC(=O)c1ccc2nc(Nc3nc4ccc(F)cc4s3)sc2c1`, the pIC50 was 6.31.
The same measure, in the same setting: as for `Cc1ccc(-c2nn(C)c(=O)c3ccccc23)cc1CNC(=O)Cn1nc(-c2ccccc2)c2ccccc2c1=O`, the figure is 6.25; as for `O=C(Nc1ccc2oc(=O)ccc2c1)c1ccc(-c2cccc([N+](=O)[O-])c2)o1`, 6.19.
For `COc1ccc(OC)c(-n2c(N)c(C(=O)NCC3CCCO3)c3nc4ccccc4nc32)c1` (centres undefined), the IC50 is > 54 µM (inactive).
As to `O=C(O)Cn1cnc2c(=S)nc[nH]c21`, the IC50 is > 54 µM (inactive).
With `Clc1cccc(Cl)c1CON/C=N/c1ncnc2sccc12`, the IC50 was > 54 µM (inactive).
On the same count and under the same terms, as for `CCOC(=O)N1CCN(C(=O)CSc2ccc3nnc(CCNC(=O)c4ccc(OC)cc4)n3n2)CC1`, the figure is > 54 µM (inactive); as for `Cc1ccc(S(=O)(=O)CCC(=O)OCC(=O)Nc2ncc(Cl)cc2Cl)cc1`, > 54 µM (inactive).
On to `CCSC1=NC2(CCCCC2)Nc2sc3c(c21)CCCC3`, for which the negative logarithm of the IC50 (pIC50) was 6.36.
The same measure, in the same setting: as for `O=C(CSc1nnc(SCc2cccc3ccccc23)s1)N=Nc1c(O)[nH]c2ccccc12`, the figure is 5.45.
Consider `Cc1ccc2cccc(Oc3ncnc4scc(-c5ccc(Cl)cc5)c34)c2n1`, for which the IC50 is > 54 µM (inactive).
As for `NC(N)=NS(=O)(=O)c1ccc(NC(=S)NC(=O)c2sc3ccccc3c2Cl)cc1`, the pIC50 is 5.98.
Still for that read-out and setting: as for `Cc1ccc2c(c1)C1C=CCC1C(C(=O)O)N2` (centres undefined), the figure is 5.66.
For `COc1cccc2c1c(NC(=O)Nc1ccc(F)cc1F)nn2C`, the IC50 was > 54 µM (inactive).
As for `Cc1ccc(S(=O)(=O)N2CN3CCN(C3)C2)cc1`, the IC50 was > 54 µM (inactive).
`O=C(NC(=S)NCc1cccnc1)c1ccc([N+](=O)[O-])cc1`: the IC50 is > 54 µM (inactive).
With `O=C(N=Nc1c(O)[nH]c2ccc(Br)cc12)c1cc(-c2cccs2)nc2ccccc12`, the pIC50 was 6.27.
Take `CCc1ccc(NC(=O)c2ccnc(C(C)(C)C)c2)cc1`: the IC50 is > 54 µM (inactive).
Same read-out and setting: as for `COc1ccc(C2C(C#N)=C(N)OC3=C2C(=O)CCC3)cc1OC` (centres undefined), the figure is > 54 µM (inactive); as for `O=C(CN1C(=O)c2ccccc2C1=O)N1CCCCC1`, > 54 µM (inactive); as for `O=C(Nc1ccccc1)NC1CCS(=O)(=O)C1` (centres undefined), > 54 µM (inactive).
Turning to `COc1cccc(-n2c(SCc3ccccn3)nc3c(c2=O)SCC3)c1`, the IC50 is > 54 µM (inactive).
On to `Cc1cc(O)ccc1N/C=C(\C#N)c1nc2ccccc2o1`, for which the IC50 was > 54 µM (inactive).
For `COc1cc2c(cc1OC)-c1cc(NCc3ccccn3)nc(=O)n1CC2`, the pIC50 is 6.26.
Take `Cc1ccc(C(=O)NC(C)c2nc3ccccc3n2CC(=O)Nc2c(C)cc(C)cc2C)cc1` (centres undefined): the pIC50 was 6.35.
On to `Cc1ccc(C)c(NC(=O)C2CCCN2/C=C/C(=O)C(F)(F)F)c1` (centres undefined), for which the IC50 was > 54 µM (inactive).
`Cc1cccc(NC(=S)c2nc3ccccc3s2)c1`: the IC50 is > 54 µM (inactive).
Regarding `CCCc1cc(=O)[nH]c(SCC(=O)c2c(C)[nH]c3ccccc23)n1`, the IC50 was > 54 µM (inactive).
On the same count and under the same terms, as for `CC1CN(C(=O)c2cccc(C(=O)N3CC(C)OC(C)C3)c2)CC(C)O1` (centres undefined), the figure is > 54 µM (inactive).
As to `COc1cccc(CNC(=O)CSCc2cnn(-c3ccccc3)c2-n2cccc2)c1OC`, the IC50 is > 54 µM (inactive).
Same read-out and setting: as for `CSc1nc(N(CCO)CCO)c2sc3nc(-c4ccco4)c4c(c3c2n1)CCC4`, the figure is > 54 µM (inactive).
With `O=[N+]([O-])c1ccc(/C=N/NC(=S)Nc2ccc(Cl)cc2Cl)s1`, the negative logarithm of the IC50 (pIC50) was 5.83.
Turning to `O=C1NN(c2ccc(Cl)c(Cl)c2)C(=O)/C1=C/c1cccc(OC(=O)c2cccs2)c1`, the pIC50 was 5.18.
With `CC(NCc1ccc2c(c1)OCO2)C(=O)NC1CCCc2ccccc21` (centres undefined), the IC50 was > 54 µM (inactive).
Turning to `CCOC(=O)C1CCCN(c2c(N3CCN(c4cccc(Cl)c4)CC3)c(=O)c2=O)C1` (centres undefined), the IC50 was > 54 µM (inactive).
`COc1ccccc1NC(=O)C(=O)N/N=C/c1ccc([N+](=O)[O-])s1`: the IC50 was > 54 µM (inactive).
As for `CCN1C(=O)/C(=C\c2ccc(-c3ccc([N+](=O)[O-])cc3OC)o2)SC1=Nc1cccc(C(=O)O)c1`, the IC50 is > 54 µM (inactive).
As to `CC1=NN(c2ccccc2)C(=O)/C1=C\c1cn(-c2ccccc2)nc1C`, the IC50 was > 54 µM (inactive).
Same read-out and setting: as for `O=C(NCCc1csc(-c2cccnc2)n1)c1cccs1`, the figure is > 54 µM (inactive).
`NNc1nc(-c2ccccc2)cs1`: the pIC50 was 6.24.
As for `Cc1cc(C)cc(N(CC(=O)NC2CCC(C)CC2)S(=O)(=O)c2c(C)noc2C)c1` (centres undefined), the IC50 is > 54 µM (inactive).
Still for that read-out and setting: as for `Clc1ccc2nc(CN3CCCc4ccccc43)cn2c1`, the figure is > 54 µM (inactive); as for `O=C(O)CCN1C(=O)S/C(=C\c2cccnc2)C1=O`, > 54 µM (inactive); as for `COc1ccc(OC)c(Nc2nc(-c3cccc([N+](=O)[O-])c3)nc3ccccc23)c1`, > 54 µM (inactive).
As for `NC(=O)c1cnn2c(-c3cccc(C(F)(F)F)c3)ccnc12`, the IC50 is > 54 µM (inactive).
Still for that read-out and setting: as for `CC(C)NC(=O)c1ccc(COCC(F)(F)F)cc1`, the figure is > 54 µM (inactive); as for `Cn1nc(-c2ccc(Cl)cc2)c2cc(C(=O)NCCN3CCOCC3)sc21`, > 54 µM (inactive).
With `CC1(c2cccc3ccccc23)NC(=O)N(CC(=O)NC2CCS(=O)(=O)C2)C1=O` (centres undefined), the IC50 is > 54 µM (inactive).
On the same count and under the same terms, as for `CCCOc1cccc(CN2CCCCC2c2cccnc2)c1` (centres undefined), the figure is > 54 µM (inactive).

As usually defined, the pIC50 is the negative decadic logarithm of the IC50, by convention in mol/L. A word on the IC50: it is the point on the concentration scale where inhibition reaches its midpoint.

These data come from PubChem BioAssay AID1418 (Emory University Molecular Libraries Screening Center, 2008).
